Assay: Chemical treatment by UV (254 nm)/sulfite advanced reduction at pH 9.5
Format: physicochemical
Protocol: The chemical treatment of five non-biodegradable PFAS was conducted in 600 mL closed-system batch reactors equipped with a low-pressure mercury lamp (254 nm, 18 W) at 20° C. The reaction mixture contained 25 μM ether PFAS, 10 mM Na2SO3, and 5 mM NaHCO3 at pH 9.5 adjusted by NaOH. […]

Molecule | degradation by UV/sulfite treatment (second advanced reduction treatment, result in words) | defluorination by chemical reductive degradation (UV 254 nm, SO3^2− 10 mM, pH 9.5, after 48 h)
Trifluoroacetic acid [TP112] | quickly and completely degraded | 
O=C(O)C(F)(OC(F)(F)C(F)(F)C(F)(F)F)C(F)(F)F (centres unmarked) [E10, 2,3,3,3-tetrafluoro-2-(perfluoropropoxy)propanoic acid] |  | less than 50%

— patent US20250276924A1, “CHEMICAL AND BIOLOGICAL DEGRADATION OF ETHER PER- AND POLYFLUOROALKYL SUBSTANCES” (The Regents of the University of California, priority 2024, published 2025)
